Results: patent US20230144023A1, “USE OF BUTYLPHTHALIDE AND DERIVATIVE THEREOF” (CSPC NBP PHARMACEUTICAL CO., LTD, priority 2020, published 2023)
Like-named read-outs stand apart in the source and are kept apart here.

Tests used:
[1] = test system: MM.1S, Jeko-1, HT29, A549, DU145; test: In vitro proliferation of 5 cell strains, summary statements (Example 7); format: cell-based, Human; details: monotherapy of NBP; 5 cell strains
Experimental: Different drug concentration gradients were set for each group.
(§1) Monotherapy group of NBP: NBP was 2× serially diluted from an initial concentration of 480 μM to 8 concentrations: 480, 240, 120, 60, 30, 15, 7.5, and 3.75 μM, respectively.
(§2) The action time of the drug was 72 h.
3 replicate wells were set for each concentration of each drug, and blank wells (only culture medium was present, and no tumor cells were inoculated) and normal wells (a culture medium inoculated with tumor cells, drug concentration was 0) were set.

[2] = PK of total paclitaxel in plasma, B16/F10 tumor-bearing mice (Example 3); format: in vivo, C57BL/6N mice; details: NBP 3, 10, 30 mg/kg bid i.p. with ab-PTX 25 mg/kg; Cmax, AUC0-t and other indexes
Experimental: Administration volume: 10 mL/kg. […] The administration was performed for 15 consecutive days. The administration volume was 10 mL/kg. Before the administration of the last dose of ab-PTX (0 h), and 5 min, 0.5 […] after the administration, blood was sampled (as detailed in Table 5), anticoagulated with heparin, and centrifuged to separate plasma, which was stored at -80° C. for later use. The total amount of paclitaxel in the plasma was determined by protein precipitation-LC/MS/MS.

[3] = PK of Bortezomib and butylphthalide in plasma of MM.1S tumor-bearing mice (Example 8); format: in vivo, Nu/Nu mice
Experimental: Monotherapy group of Bortezomib: administered by intraperitoneal injection at 0.5 mg/kg, biw (on days 0, 3, 7, 10, and 15);
Monotherapy group of NBP: administered by transoral gavage at 60 mg/kg, bid (the administration was commenced on day 0), and the second dose of NBP was administered with an interval from the first dose of ≥4 h;
Monotherapy group of Palbociclib: intragastric administration at 70 mg/kg, qd (the administration was commenced on day 0);
Combined therapy group of NBP/Bortezomib: the administration frequency and dose were the same as the frequency and dose of the monotherapy group of NBP and the monotherapy group of Bortezomib, respectively.
Combined therapy group of Bortezomib/Palbociclib: the administration frequency and dose were the same as the frequency and dose of the monotherapy group of Bortezomib and the monotherapy group of Palbociclib, respectively.
Combined therapy group of NBP/Bortezomib/Palbociclib: the administration frequency and dose were the same as the frequency and dose of the monotherapy group of NBP, the monotherapy group of Bortezomib, and the monotherapy group of Palbociclib, respectively.
Before administration of the last dose of Bortezomib (0 h), and 5 min, 15 min, 30 min, 1 h, 2 h, 4 h, 8 h, 24 h after the administration, blood was sampled (as detailed in Table 8) (except that blood was sampled from the mice in the solvent group only at 0 h), anticoagulated with heparin, and centrifuged to separate plasma, which was stored at −80° C. for later use. Bortezomib and butyphthalide in the plasma were determined by protein precipitation-LC/MS/MS.

[4] = PK of total paclitaxel in plasma, JIMT-1 tumor-bearing mice (Example 4); format: in vivo, Nu/Nu mice; details: NBP 6, 20, 60 mg/kg bid gavage with ab-PTX 15 mg/kg i.v.
Experimental: Administration period: 28 days. Administration volume: 10 mL/kg.
The administration period was 28 days. The administration volume was 10 mL/kg.

[5] = test system: bortezomib chemotherapy-induced peripheral neuropathy; test: Bortezomib chemotherapy-induced peripheral neuropathy in rats (Example 6); format: in vivo, SD (Sprague Dawley) rats; details: compared with the model group
Experimental: (The modeling and administration time are shown in FIG. 11. The animal grouping, the administration method, and the doses are detailed in Table 14). […] (2) Thermal pain threshold: measurements were performed on days 0, 7, 14, and 21. Method: IITC Life Science Electronic Von Frey Anesthesio meter was used and the intensity of the light source was adjusted to obtain a thermal pain threshold baseline of about 3-6 s. […] The rats were placed in a plastic compartment on a glass plate, to make the planta centers of the rats be exposed to the light source. […] (3) Mechanical Stimulus Pain Threshold: Measurements were Performed on Days −1, 6, 13, and 20. Method: the rats were placed in a plastic compartment on a wire mesh, left to stand still for 15 min, stimulated using a stimulation probe with a diameter of 0.4 mm of the IITC Life Science Electronic Von Frey Anesthesio meter at the planta centers of the rats by gradually increasing the force until reflexive withdrawal of the rats.

[6] = test system: MDA-MB-231, JIMT-1, SK-OV-3, HT29, A549, A375; test: In vitro proliferation of 6 tumor cell strains, summary statements (Example 5); format: cell-based, Human; details: NBP alone; 6 cell strains
Experimental: (§3) This experiment includes a monotherapy group of ab-PTX, a combined therapy group (ab-PTX/NBP), and an NBP group. Different drug concentration gradients were set for each group.
(§4) ab-PTX/NBP group: the final concentration of NBP was 30 μM, and the concentration gradient of ab-PTX was the same as that of the monotherapy group.
as §1, §2
(§5) 24 h after adherence, 100 μL of the culture solution containing different concentration gradients of ab-PTX was added to each well of the monotherapy group of ab-PTX; 100 μL of the culture solution containing different concentration gradients of ab-PTX and 30 μM NBP was added to each well of the combined therapy group of ab-PTX/NBP; 100 μL of the culture solution containing different concentration gradients of NBP was added to each well of the monotherapy group of NBP; 3 repeated wells were provided for each concentration of each drug, and the blank wells (only culture medium was present) and the normal wells (drug concentration was 0) were provided.
(§6) The experiment was repeated three times, and the IC50 value was expressed as the mean±SD of the results of the 3 experiments.

[7] = test system: HT29; test: In vitro tumor cell proliferation, MTT (Example 7); details: Homo sapiens, HT-29, 72 h
[8] = test system: A375; test: In vitro tumor cell proliferation, MTT (Example 5); format: cell-based; details: Homo sapiens, A-375, 30 μM NBP alone, 72 h, read-out: Inhibition rate
Experimental: as §3, §4, §1, §2, §5, §6

[9] = NBP 60 mg/kg gavage, Bor 0.5 mg/kg, Pal 70 mg/kg, mean ± SD, n=6

- influence of NBP on the PK behavior of ab-PTX in mice [2]: did not affect
- influence of NBP on the in vivo pharmacokinetic behaviors of monotherapy of Bortezomib and combined therapy of Bortezomib/Palbociclib ([3]; NBP 60 mg/kg bid): did not have obvious influence
- CI of NBP [3, 9]: 173 ± 104 L/h/kg
- Vd of NBP [3, 9]: 1445 ± 298 L/kg
- AUC(0-t) ([3]; Nu/Nu, mouse, plasma, po, NBP 60 mg/kg gavage, Bor 0.5 mg/kg, Pal 70 mg/kg, mean ± SD, n=6, read-out: AUC0-t of NBP in plasma): 0.236 ± 0.1 µg·h/mL
- Cmax ([3]; Nu/Nu, mouse, plasma, po, NBP 60 mg/kg gavage, Bor 0.5 mg/kg, Pal 70 mg/kg, mean ± SD, n=6, read-out: Cmax of NBP in plasma): 0.117 ± 0.088 µg/mL
- MRT last ([3]; Nu/Nu, mouse, plasma, po, NBP 60 mg/kg gavage, Bor 0.5 mg/kg, Pal 70 mg/kg, mean ± SD, n=6, read-out: MRT0-t of NBP): 3.1 ± 0.6 h
- half-life ([3]; Nu/Nu, mouse, plasma, po, NBP 60 mg/kg gavage, Bor 0.5 mg/kg, Pal 70 mg/kg, mean ± SD, n=6, read-out: t1/2 of NBP in plasma (converted)): 10.1 ± 9.7 h
- influence of combined butylphthalide on the pharmacokinetic behavior of paclitaxel in the plasma [4]: did not affect
Compound: CCCCC1OC(=O)c2ccccc21 (stereo not shown) [NBP, 3-n-butylphthalide]
- inhibitory effect on in vitro proliferation [1]: does not have obvious inhibitory effect
- mechanical stimulus pain threshold (decrease in model rats) ([5]; day 20, NBP 10 and 30 mg/kg bid): significantly reversed
- body weights of the rats ([5]; day 21, NBP 3, 10 and 30 mg/kg bid gavage): not obviously changed
- thermal pain threshold (decrease in model rats) ([5]; day 21, NBP 3, 10 and 30 mg/kg bid): significantly reversed
- inhibitory effect on in vitro proliferation [6]: did not have obvious inhibitory effect
- inhibition at 30 µM ([7]; read-out: Inhibition rate, First dose): 9.98%
- inhibition at 30 µM ([7]; read-out: Inhibition rate, Mean ± SD): 10.7 ± 2.79%
- inhibition at 30 µM ([7]; read-out: Inhibition rate, Second dose): 8.27%
- inhibition at 30 µM ([7]; read-out: Inhibition rate, Third dose): 13.7%
- inhibition at 30 µM [8]: 10.9 ± 0.57%
